These results are taken from patent US20120190659A1, “ANGIOGENESIS INHIBITORS” (Children's Medical Center Corporation, priority 2009, published 2012).

Data set [1] concerns human umbilical vascular endothelial (HUVE) cells. The data set is described as follows: Compound toxicity in HUVE cells (morphology after 24 h culture). The class given is cell-based. The conditions noted are these: 50-2000 nM, 5% FBS/EGM2 media. As to the method: HUVE cells were cultured for 24 hours on standard tissue culture dishes in the presence of EJC 1-6 over a range of concentration (50-2000 nM). […] (FIGS. 1 and 2).

Data set [2] has the same test system. In words: HUVE cell growth (BrdU incorporation). To be noted: for HUVE cell growth induced by PDGF / HUVE cell growth induced by VEGF / HUVE cell growth induced by bFGF: concentration not given. The class given is cell-based. As to the method: Incorporation of 5-bromo-2′-deoxyuridibe (BrdU) is a common method used to detect the DNA replication in actively proliferating cells. Inhibition of cell growth is inferred by the decrease of BrdU incorporation into the cells. […] The assay can be preformed in the presence or absence of growth factors such as VEGF, bFGF and PDGF. This assay was performed by a procedure described in Huang S, Chen C S, Ingber D E. “Control of cyclin D1, p 27(Kip1), and cell cycle progression in human capillary endothelial cells by cell shape and cytoskeletal tension.” Mol Biol Cell. 1998, 9:3179-93, the teachings of which are incorporated herein by reference.
For orientation: Dividing cells build labelled thymidine or BrdU into new DNA.

The test system is the same in data set [3]. The data set is described as follows: HUVE cell migration, transwell migration assay stimulated by VEGF. The class given is cell-based. To be noted: for HUVE cell migration: 20 ng/ml VEGF. The procedure:
Cell migration is an important aspect of angiogenesis. The effect of the test compounds on HUVE cell motility as stimulated by VEGF was examined using a transwell migration assay. This assay was performed by a similar procedure described in Shimizu A, Mammoto A, Italiano J E Jr, Pravda E, Dudley A C, Ingber D E, Klagsbrun M. “ABL2/ARG tyrosine kinase mediates SEMA3F-induced RhoA inactivation and cytoskeleton collapse in human glioma cells.” J. Biol. Chem. 2008, 283:27230-8, the teaching of which are incorporated by reference.
Briefly, transwell membranes (Coster, N.Y.) were coated with 0.5% gelatin, and cells were seeded (10^5 cells/100 μl) with 0.3% FBS/EBM2. The test compound was added to the both sides of the chamber. Cells were stained with Giemsa solution 16 hours later, and counted in 10 random fields (×400).

Data set [4] has the same test system. In words: Tube formation of HUVE cells on Matrigel. The class given is cell-based. To be noted: for tube formation, quantitative analysis of mean tube length: cultured with VEGF in the basal EBM2 medium (FIG. 12). As to the method:
The effect of an agent on tube formation of HUVE cells was determined by a procedure described in Grant D S, Kinsella J L, Kibbey M C, LaFlamme S, Burbelo P D, Goldstein A L, Kleinman H K “Matrigel induces thymosin beta 4 gene in differentiating endothelial cells.” J Cell Sci. 1995, 108:3685-94, the teachings of which are incorporated by reference.
Briefly, HUVE cells (10^4 cells/150 μl of EBM-2) were plated on Matrigel™ (BD biosciences) and incubated for 12-16 hrs in the presence of VEGF (20 ng/ml) and the test compound. Tube formation was assessed in 10 random fields (4×).

Data set [5] deals with developing vasculature of the newborn mouse retina. The data set is described as follows: In vivo screening assay for inhibitors of retinal angiogenesis (intravitreous injection, newborn mice). To be noted: for retinal vessel formation: 5 nmol single injection. The text has this: Blood vessel formation is critical for organ formation in the body. Compounds that inhibit angiogenesis within specific tissue types have therapeutic potential. For example, compounds that are effective in the retina may be used for the treatment of many types of blindness and other opthalmological diseases. Therefore, an in vivo method to screen for compounds that inhibit the growing vascular networks within the developing whole retina in eyes of living newborn mice was developed.
To screen in vivo in the eye for inhibitors of retinal angiogenesis, we adapted and modified the system described in Mammoto, A., Connor, K. M., Mammoto, T., Yung, C. W., Huh, D., Aderman, C. M., Mostoslaysky, G., Smith, L. E. H., & Ingber, D. E. A mechanosensitive transcriptional mechanism that controls angiogenesis. Nature 457, 1103-1108 (2009); and Shih, S. C., Ju, M., Liu, N. & Smith, L. E. Selective stimulation of VEGFR-1 prevents oxygen-induced retinal vascular degeneration in retinopathy of prematurity. J. Clin. Invest. 112, 50-7 (2003), the teachings of both are incorporated herein by reference. This assay was performed by a procedure described in Chen J, Connor K M, Aderman C M, Smith L E. “Erythropoietin deficiency decreases vascular stability in mice.” J. Clin. Invest. 2008, 118:526-33, the teachings of which are incorporated herein by reference.
After intraperitoneal injection of Avertin (125-240 mg/kg), the eyelid of mice was opened in a gentle manner by using tiny sterile blunt forceps. Test compound was injected into the vitreous of one eye of the mouse and a vehicle was injected into the other eye of the same mouse at either P6 or P14. Injections were performed by inserting an Exmire microsyringe (MS-NE05, ITO Corp. Fuji, Japan) into the vitreous 1 mm posterior to the corneal limbus. Pupils were dilated with 1% tropicamide. Insertion and the injection (0.3-0.5 μL solution) were directly viewed through an operating microscope, taking care not to injure the lens or the retina. The time points for intravitreous injection were set at P6 and P14 because these stages represent distinct developmental stages during vascular network formation. Blood vessels start spreading over the surface of retinal tissue at early times (P4-P6), then these distributed blood vessels start migrating into the deeper layer of the retina to make a three-dimensional vascular network at later times (P6-P14). Thus, using this approach, screening for inhibitors of initiation of angiogenesis at early times, and agents that induce regression of preexisting capillary vessels at the later time point can be identified.
After injection, the eyelid was treated with bacitracin eye antibiotic ointment, and eyelids naturally reformed after the procedure. Vascular network formation in the retina was assessed two days after injection using flat-mounted, fluorescein-conjugated isolectin-staining and immunohistochemical analysis. Quantification of vessel density was performed with Adobe photoshop.

Setting [6] is: 50 nM, cultured with VEGF in the basal EBM2 medium.

For `CN(C)[C@@H]1CC[C@H]2[C@@H](CC[C@@H]3[C@@H]2CC[C@]2(C)C(c4ccc5ccncc5c4)=CC[C@@H]32)C1` [EJC-1], in data set [1], the “morphological change of HUVE cells” value was “No morphological change”. In addition, in data set [2] (0, 200, 1000 and 2000 nM (FIG. 3B)), the “growth of HUVE cells (BrdU incorporation)” value was “inhibit the growth”. Moreover, the BrdU incorporation entry in data set [2] (1 μM (FIG. 3A)) was “inhibit”. The “doses that inhibited BrdU incorporation” value in data set [2] (FIGS. 3A & 3B) is on record as “greater than 1 μM”. The HUVE cell migration result in data set [3] (200 nM test compound) was “exhibited inhibitory activity”; in data set [3] (1 μM (1000 nM) test compound), “inhibit”; in data set [3] (2000 nM test compound), “inhibit”. Besides, the tube formation result in data set [4] (2 μM) is recorded as “inhibited”.
`CN(C)[C@H]1CC[C@H]2[C@@H](CC[C@@H]3[C@@H]2CC[C@]2(C)[C@@H](c4ccc5ccncc5c4)CC[C@@H]32)C1` [EJC-07]: in data set [3] (200 nM test compound), the HUVE cell migration result was “active”.
As to `CN1CCc2ccc([C@H]3CC[C@H]4[C@@H]5CC[C@H]6C[C@@H](N(C)C)CC[C@@H]6[C@H]5CC[C@]34C)cc2C1` [EJC-8], the HUVE cell migration result in data set [3] (50 nM test compound) is recorded as “inhibit”.
Consider `CN1CCc2ccc(C3=CC[C@H]4[C@@H]5CC[C@H]6C[C@@H](N(C)C)CC[C@@H]6[C@H]5CC[C@]34C)cc2C1` [EJC-9], for which the HUVE cell migration entry in data set [3] (50 nM test compound) and in data set [3] (200 nM test compound) was “not active” each time. Moreover, the tube formation entry in data set [4] (setting [6]) was “significant inhibition”. In data set [4] (50 nM), the “tube formation, quantitative analysis of mean tube length” value is “inhibit”.
Turning to `CN(C)[C@H]1CC[C@H]2[C@@H](CC[C@@H]3[C@@H]2CC[C@]2(C)C(c4ccc5cnccc5c4)=CC[C@@H]32)C1` [EJC-10], the IC50 in data set [2] (Homo sapiens, in the presence of PDGF, read-out: IC50, cell growth induced by PDGF) was found to be 79.5 nM; in data set [2] (Homo sapiens, in the presence of VEGF, read-out: IC50, cell growth induced by VEGF) it was 16.7 nM; in data set [2] (Homo sapiens, in the presence of bFGF, read-out: IC50, cell growth induced by bFGF) it was 64.1 nM; in data set [2] (Homo sapiens, media absent an exogenous growth factor, read-out: IC50, growth of HUVE cells), 57.6 nM; in data set [2] (in the presence of PDGF, read-out: IC50, cell growth induced by PDGF), 79.5 nM; in data set [2] (in the presence of bFGF, read-out: IC50, cell growth induced by bFGF), 64.1 nM. Further, in data set [3] (Homo sapiens, VEGF-stimulated, transwell, read-out: cell migration inhibition IC50), the IC50 was determined as 70.7 nM. Also, in data set [2], the “HUVE cell growth induced by PDGF” value is given as “inhibited”. Besides, the “HUVE cell growth induced by VEGF” value in data set [2] is given as “inhibited”. For the same molecule, in data set [2], the “HUVE cell growth induced by bFGF” value is “inhibited”. Also, in data set [3] (50 nM test compound), the HUVE cell migration result is reported as “inhibit”. The tube formation entry in data set [4] (setting [6]) is reported as “significant inhibition”. Also, the “tube formation, quantitative analysis of mean tube length” value in data set [4] (50 nM) is “inhibit”. Moreover, the retinal vessel formation result in data set [5] (p6 mice) and in data set [5] (p14 mice) was “did not inhibit retinal vessel formation completely” each time. Besides, in data set [5] (single dose of 500 pmol, p6 mice (FIG. 13)), the “vessel density in the retina compared to control” value is recorded as “decreases”. Also, the retinal angiogenesis result in data set [5] (single injection of 500 pmol, p6 mice) was “inhibited”.
On to `CN(C)[C@H]1CC[C@H]2[C@@H](CC[C@@H]3[C@@H]2CC[C@]2(C)C(c4ccc5ncccc5c4)=CC[C@@H]32)C1` [EJC-11], for which the HUVE cell migration result in data set [3] (50 nM test compound) is “moderately active”.
In the case of `CN(C)[C@H]1CC[C@H]2[C@@H](CC[C@@H]3[C@@H]2CC[C@]2(C)C(c4cccc5cnccc45)=CC[C@@H]32)C1` [EJC-12], the HUVE cell migration result in data set [3] (50 nM test compound) is “inhibit”.
Same read-out and setting: in the case of `CN(C)[C@H]1CC[C@H]2[C@@H](CC[C@@H]3[C@@H]2CC[C@]2(C)C(c4cccc5ncccc45)=CC[C@@H]32)C1` [EJC-13] it was “moderately active”.
On to `CN(C)[C@H]1CC[C@H]2[C@@H](CC[C@@H]3[C@@H]2CC[C@]2(C)C(c4cccnc4)=CC[C@@H]32)C1` [EJC-14], for which the “cell growth induced by VEGF” value in data set [2] (50 nM) is on record as “inhibited”. Further, in data set [2], the “HUVE cell growth induced by PDGF” value was “only at higher concentrations and not”; the “HUVE cell growth induced by VEGF” value is “inhibited”; the “HUVE cell growth induced by bFGF” value is “only at higher concentrations and not”. Moreover, the HUVE cell migration entry in data set [3] (50 nM test compound) is on record as “inhibit”. For the same molecule, the retinal vessel formation entry in data set [5] (p6 mice) is listed as “did not inhibit”. In addition, the retinal vessel formation result in data set [5] (p14 mice) is “did not inhibit”.
On to `CN(C)[C@H]1CC[C@H]2[C@@H](CC[C@@H]3[C@@H]2CC[C@]2(C)C(c4ccncc4)=CC[C@@H]32)C1` [EJC-15], for which the HUVE cell migration entry in data set [3] (50 nM test compound) is “inactive”.
Regarding `C[C@]12CC[C@H]3[C@@H](CC[C@H]4C[C@@H](N5CCCC5)CC[C@@H]43)[C@@H]1CC=C2c1ccc2ccncc2c1` [EJC-21], the HUVE cell migration result in data set [3] (50 nM test compound) is “did not inhibit”.
On the same count and under the same terms, with `C[C@]12CC[C@H]3[C@@H](CC[C@H]4C[C@@H](N5CCCC5)CC[C@@H]43)[C@@H]1CC=C2c1ccc2cnccc2c1` [EJC-22] the entry was “did not inhibit”; with `C[C@]12CC[C@H]3[C@@H](CC[C@H]4C[C@@H](N5CCOCC5)CC[C@@H]43)[C@@H]1CC=C2c1ccc2ccncc2c1` [EJC-23], “did not inhibit”.
`C[C@]12CC[C@H]3[C@@H](CC[C@H]4C[C@@H](N5CCOCC5)CC[C@@H]43)[C@@H]1CC=C2c1ccc2cnccc2c1` [EJC-24]: the HUVE cell migration entry in data set [3] (50 nM test compound) is “did not inhibit”.
